{
  "source": "patent US7626043B2",
  "about": "“Antiproliferative activity of the leiodermatolide class of macrolides” (Florida Atlantic University Board of Trustees, priority 2006, dated 2009)",
  "type_in_all_cases": "cell-based",
  "key": {"[1]": {"tested_on": "A549 human lung adenocarcinoma cells", "assay": "Cell cycle analysis (propidium iodide flow cytometry), A549", "conditions": "A549, 24 hr", "description": "(§1) A549 human lung adenocarcinoma cells were used as cell cycle targets to compare the effects on perturbation of the cell cycle of leiodermatolide to the known mitotic spindle inhibitor Paclitaxel. Cell cycle analyses were performed as follows: A549 human lung adenocarcinoma cells were incubated in tissue culture media (TCM=Roswell Park Memorial Institute (RPMI) medium 1640 supplemented with 100 U/ml penicillin, 100 […] 1-glutamine, 18 mM HEPES, 0.05 mg/ml gentamicin and 10% fetal bovine serum) at 37° C. in 5% CO2 in air in the presence or absence of varying concentrations of leiodermatolide or Paclitaxel for 24 hours.\n(§2) Cells were harvested, fixed in ethanol and stained with 0.02 mg/ml of propidium iodide (P.I.) together with 0.1 mg/ml of RNAse A. This procedure permeabilizes cells and allows entry of P.I. to stain DNA (propidium iodide also stains double stranded RNA, so RNAse is included in the preparation to exclude this possibility). Stained preparations were analyzed on a BD Sciences Calibur Flow Cytometer with 488 nm excitation. Fluorescence measurements and resulting DNA histograms were collected from at least 3,000 P.I. stained cells at an emission wavelength of 690 nm. Raw histogram data was further analyzed using a cell cycle analysis program (Multicycle, Phoenix Flow Systems)."}, "[2]": {"tested_on": "PANC-1 human pancreatic carcinoma cells", "assay": "Cell cycle analysis (propidium iodide flow cytometry), PANC-1", "conditions": "PANC-1, 24 hr", "description": "as §1, with “PANC-1 human pancreatic” for “A549 human lung”, “PANC-1 human pancreatic carcinoma cells were” for “A549 human lung adenocarcinoma cells were”, “of leiodermatolide and the known” for “of leiodermatolide to the known”, “as follows: PANC-1 […]” for “as follows: A549 human lung”, “0.05 mg/ml gentamicin, 100 μg/ml sodium pyruvate, 2.5 mg/ml glucose and 10%” for “0.05 mg/ml gentamicin and 10%”\nas §2"}, "[3]": {"tested_on": "A549 human lung adenocarcinoma", "assay": "MTT antiproliferative/cytotoxicity assay, A549", "conditions": "72-h exposure", "description": "(§3) Leiodermatolide was analyzed as to its effects on the proliferation of a panel of tumor cell lines including both cell lines. The cell lines tested include: A549 human lung adenocarcinoma, NCI-ADR-RES (Formerly MCF-7/ADR) human cancer, PANC-1 human pancreatic cancer, DLD-1 human colorectal carcinoma, and P388 murine leukemia cell lines. P388 cells were obtained from Dr. R. Camalier, National Cancer Institute Bethesda, Md., and A549, PANC-1, DLD-1 and NCI-ADR-RES cells were obtained from American Type Culture Collection, Rockville, Md. […]\n(§4) A volume of 75 μl of warm growth media containing 5 mg/ml MTT is added to each well, cultures returned to the incubator, and left undisturbed for 3 hours. To spectrophotometrically quantitate formation of reduced formazan, plates are centrifuged (900×g, 5 minutes), culture fluids removed by aspiration, and 200 μl of acidified isopropanol (2 ml concentrated HCl/liter isopropanol) added per well. The absorbance of the resulting solutions is measured at 570 nm with a plate reader (BMG labtech NOVOStar). […] The two standard drug controls (indicated above) are included in each assay to monitor the drug sensitivity of each of the cell lines and IC50 values are determined for each drug-cell combination."}, "[4]": {"tested_on": "NCI-ADR-RES (Formerly MCF-7/ADR) human cancer", "assay": "MTT antiproliferative/cytotoxicity assay, NCI-ADR-RES", "conditions": "72-h exposure, read-out: NCIADR-RES IC50", "description": "as §3, §4"}, "[5]": {"tested_on": "P388 murine leukemia", "assay": "MTT antiproliferative/cytotoxicity assay, P388", "conditions": "Mus musculus, 48-hr exposure", "description": "as §3, §4"}, "[6]": {"tested_on": "PANC-1 human pancreatic cancer", "assay": "MTT antiproliferative/cytotoxicity assay, PANC-1", "conditions": "72-h exposure", "description": "as §3, §4"}, "[7]": {"tested_on": "DLD-1 human colorectal carcinoma", "assay": "MTT antiproliferative/cytotoxicity assay, DLD-1", "conditions": "72-h exposure", "description": "as §3, §4"}, "[8]": {"conditions": "10 nM, listed as leiodermatolide"}, "[9]": {"conditions": "100 nM, listed as leiodermatolide"}},
  "data": [
    {"smiles": "CC(=O)O[C@H]1C(=O)[C@@]2(C)[C@H]([C@H](OC(=O)c3ccccc3)[C@]3(O)C[C@H](OC(=O)[C@H](O)[C@@H](NC(=O)c4ccccc4)c4ccccc4)C(C)=C1C3(C)C)[C@]1(OC(C)=O)CO[C@@H]1C[C@@H]2O", "note": "[Paclitaxel, reference compound]", "values": [
      {"measurement": "G1 (percentage of cells)", "setting": "[1]; 100 nM", "result": 2, "unit": "%"},
      {"measurement": "G2/M (percentage of cells)", "setting": "[1]; 100 nM", "result": 98, "unit": "%"},
      {"measurement": "S (percentage of cells)", "setting": "[1]; 100 nM", "result": 0, "unit": "%"},
      {"measurement": "G1 (percentage of cells)", "setting": "[1]; 100 nM, listed as taxol", "result": 2.18, "unit": "%"},
      {"measurement": "G2/M (percentage of cells)", "setting": "[1]; 100 nM, listed as taxol", "result": 97.82, "unit": "%"},
      {"measurement": "S (percentage of cells)", "setting": "[1]; 100 nM, listed as taxol", "result": 0.00, "unit": "%"},
      {"measurement": "G1 (percentage of cells)", "setting": "[2]; 100 nM", "result": 10, "unit": "%"},
      {"measurement": "G2/M (percentage of cells)", "setting": "[2]; 100 nM", "result": 88, "unit": "%"},
      {"measurement": "S (percentage of cells)", "setting": "[2]; 100 nM", "result": 2, "unit": "%"},
      {"measurement": "G1 (percentage of cells)", "setting": "[2]; 100 nM, listed as paclitaxel", "result": 9.76, "unit": "%"},
      {"measurement": "G2/M (percentage of cells)", "setting": "[2]; 100 nM, listed as paclitaxel", "result": 88.36, "unit": "%"},
      {"measurement": "S (percentage of cells)", "setting": "[2]; 100 nM, listed as paclitaxel", "result": 1.88, "unit": "%"}
    ]},
    {"smiles": "CCC1OC(=O)CC(O)(C/C=C/C=C(\\C)C2OC(=O)CC/C=C(\\C)C(C)C(O)C(C)C(OC(N)=O)/C=C\\C=C/C2C)C1C", "note": "(centres unmarked) [Leiodermatolide]", "values": [
      {"measurement": "IC50", "setting": "[3]", "result": 3.3, "unit": "nM"},
      {"measurement": "IC50", "setting": "[4]", "result": 233, "unit": "nM"},
      {"measurement": "IC50", "setting": "[5]", "result": 3.3, "unit": "nM"},
      {"measurement": "IC50", "setting": "[6]", "result": 5, "unit": "nM"},
      {"measurement": "IC50", "setting": "[7]", "result": 8.3, "unit": "nM"},
      {"measurement": "G1 (percentage of cells)", "setting": "[1]; 1 nM", "result": 55.75, "unit": "%"},
      {"measurement": "G2/M (percentage of cells)", "setting": "[1]; 1 nM", "result": 13.40, "unit": "%"},
      {"measurement": "S (percentage of cells)", "setting": "[1]; 1 nM", "result": 30.85, "unit": "%"},
      {"measurement": "G1 (percentage of cells)", "setting": "[1]; 10 nM", "result": 2.97, "unit": "%"},
      {"measurement": "G2/M (percentage of cells)", "setting": "[1]; 10 nM", "result": 97.03, "unit": "%"},
      {"measurement": "S (percentage of cells)", "setting": "[1]; 10 nM", "result": 0.00, "unit": "%"},
      {"measurement": "G1 (percentage of cells)", "setting": "[1]; [8]", "result": 3, "unit": "%"},
      {"measurement": "G2/M (percentage of cells)", "setting": "[1]; [8]", "result": 97, "unit": "%"},
      {"measurement": "S (percentage of cells)", "setting": "[1]; [8]", "result": 0, "unit": "%"},
      {"measurement": "G1 (percentage of cells)", "setting": "[1]; 100 nM", "result": 1.70, "unit": "%"},
      {"measurement": "G2/M (percentage of cells)", "setting": "[1]; 100 nM", "result": 98.30, "unit": "%"},
      {"measurement": "S (percentage of cells)", "setting": "[1]; 100 nM", "result": 0.00, "unit": "%"},
      {"measurement": "G1 (percentage of cells)", "setting": "[1]; [9]", "result": 2, "unit": "%"},
      {"measurement": "G2/M (percentage of cells)", "setting": "[1]; [9]", "result": 98, "unit": "%"},
      {"measurement": "S (percentage of cells)", "setting": "[1]; [9]", "result": 0, "unit": "%"},
      {"measurement": "G1 (percentage of cells)", "setting": "[1]; 1000 nM", "result": 4.99, "unit": "%"},
      {"measurement": "G2/M (percentage of cells)", "setting": "[1]; 1000 nM", "result": 95.01, "unit": "%"},
      {"measurement": "S (percentage of cells)", "setting": "[1]; 1000 nM", "result": 0.00, "unit": "%"},
      {"measurement": "G1 (percentage of cells)", "setting": "[2]; 1 nM", "result": 47.88, "unit": "%"},
      {"measurement": "G2/M (percentage of cells)", "setting": "[2]; 1 nM", "result": 28.93, "unit": "%"},
      {"measurement": "S (percentage of cells)", "setting": "[2]; 1 nM", "result": 23.18, "unit": "%"},
      {"measurement": "G1 (percentage of cells)", "setting": "[2]; 10 nM", "result": 12.04, "unit": "%"},
      {"measurement": "G2/M (percentage of cells)", "setting": "[2]; 10 nM", "result": 83.45, "unit": "%"},
      {"measurement": "S (percentage of cells)", "setting": "[2]; 10 nM", "result": 4.51, "unit": "%"},
      {"measurement": "G1 (percentage of cells)", "setting": "[2]; [8]", "result": 12, "unit": "%"},
      {"measurement": "G2/M (percentage of cells)", "setting": "[2]; [8]", "result": 83, "unit": "%"},
      {"measurement": "S (percentage of cells)", "setting": "[2]; [8]", "result": 4, "unit": "%"},
      {"measurement": "G1 (percentage of cells)", "setting": "[2]; 100 nM", "result": 16.55, "unit": "%"},
      {"measurement": "G2/M (percentage of cells)", "setting": "[2]; 100 nM", "result": 77.45, "unit": "%"},
      {"measurement": "S (percentage of cells)", "setting": "[2]; 100 nM", "result": 6.00, "unit": "%"},
      {"measurement": "G1 (percentage of cells)", "setting": "[2]; [9]", "result": 16, "unit": "%"},
      {"measurement": "G2/M (percentage of cells)", "setting": "[2]; [9]", "result": 77, "unit": "%"},
      {"measurement": "S (percentage of cells)", "setting": "[2]; [9]", "result": 6, "unit": "%"},
      {"measurement": "G1 (percentage of cells)", "setting": "[2]; 1000 nM", "result": 29.54, "unit": "%"},
      {"measurement": "G2/M (percentage of cells)", "setting": "[2]; 1000 nM", "result": 63.92, "unit": "%"},
      {"measurement": "S (percentage of cells)", "setting": "[2]; 1000 nM", "result": 6.53, "unit": "%"}
    ]}
  ]
}
